In ChEMBL document CHEMBL1147729, “(+)-(2R,5S)-4-[4-cyano-3-(trifluoromethyl)phenyl]-2,5-dimethyl-N-[6-(trifluoromethyl)pyridin-3-yl]piperazine-1-carboxamide (YM580) as an orally potent and peripherally selective nonsteroidal androgen receptor antagonist” (J Med Chem, 2006):
Active and inactive are the calls of the source. No cut-off for these calls is given here.

Columns and labels:
Rattus norvegicus [1] = test: Effect on ventral prostate weight with reference to control in Wistar rat at 10 mg/kg/day, po; assay type: functional, Prostate gland; conditions: for inhibition in vivo at 10 mg/kg/day: Rattus norvegicus, Wistar; for inhibition in vivo at 10 mg/kg/day / inhibition: Prostate gland
Rattus norvegicus [2] = test: Effect on ventral prostate weight with reference to control in Wistar rat at 10 mg/kg/day, po; conditions: Prostate gland
Androgen receptor = target: T1, Androgen receptor (Homo sapiens, UniProt P10275)
T1 sequence (P10275 whole entry): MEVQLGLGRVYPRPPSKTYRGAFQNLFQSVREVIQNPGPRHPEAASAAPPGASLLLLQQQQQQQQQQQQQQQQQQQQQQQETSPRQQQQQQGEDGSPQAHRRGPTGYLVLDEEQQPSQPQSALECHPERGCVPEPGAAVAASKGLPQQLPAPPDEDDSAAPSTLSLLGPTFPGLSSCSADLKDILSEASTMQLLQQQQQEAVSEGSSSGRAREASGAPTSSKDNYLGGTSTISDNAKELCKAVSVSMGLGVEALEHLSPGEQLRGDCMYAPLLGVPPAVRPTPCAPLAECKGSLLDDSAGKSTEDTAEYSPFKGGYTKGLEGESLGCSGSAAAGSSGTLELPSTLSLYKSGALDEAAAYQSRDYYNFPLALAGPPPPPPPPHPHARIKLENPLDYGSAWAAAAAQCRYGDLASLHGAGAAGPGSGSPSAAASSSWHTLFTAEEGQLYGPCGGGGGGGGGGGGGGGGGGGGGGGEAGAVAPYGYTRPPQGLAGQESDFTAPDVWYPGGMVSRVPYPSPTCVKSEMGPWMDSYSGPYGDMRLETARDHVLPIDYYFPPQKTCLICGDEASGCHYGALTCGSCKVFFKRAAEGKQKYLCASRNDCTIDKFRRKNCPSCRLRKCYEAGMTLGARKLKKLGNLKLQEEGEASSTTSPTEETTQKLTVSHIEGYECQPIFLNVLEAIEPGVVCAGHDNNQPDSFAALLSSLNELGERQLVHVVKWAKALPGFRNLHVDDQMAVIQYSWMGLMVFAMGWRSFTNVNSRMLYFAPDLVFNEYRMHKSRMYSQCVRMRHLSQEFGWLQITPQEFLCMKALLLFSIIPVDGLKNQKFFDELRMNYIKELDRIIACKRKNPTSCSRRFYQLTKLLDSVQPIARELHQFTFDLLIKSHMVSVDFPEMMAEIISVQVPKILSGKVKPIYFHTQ
Description: Inhibition of AR mediated transcriptional activation using reporter assay

[3] = AUC (0-72)hrs in rat ventral prostate at 3 mg/kg, po; assay type: ADME, organism-based, Prostate gland; set-up: time < 72 hr, dose 3 mg/kg, route oral
[4] = Half life in rat hypothalamus at 3 mg/kg, po; assay type: ADME, organism-based; set-up: dose 3 mg/kg, route oral
[5] = Cmax in rat ventral prostate at 3 mg/kg, po; assay type: ADME, organism-based, Prostate gland; set-up: dose 3 mg/kg, route oral
Rattus norvegicus [6] = test: Effect on ventral prostate weight with reference to control in Wistar rat at 100 mg/kg/day; assay type: ADME, organism-based, Prostate gland; conditions: in vivo
[7] = Cmax in rat plasma at 3 mg/kg, po; assay type: ADME, organism-based; set-up: dose 3 mg/kg, route oral
[8] = AUC (0-72)hrs in rat plasma at 3 mg/kg, po; assay type: ADME, organism-based; set-up: time < 72 hr, dose 3 mg/kg, route oral
Glucocorticoid receptor = target: T2, Glucocorticoid receptor (Homo sapiens, UniProt P04150); test: Inhibition of human GR
T2 sequence (P04150 whole entry): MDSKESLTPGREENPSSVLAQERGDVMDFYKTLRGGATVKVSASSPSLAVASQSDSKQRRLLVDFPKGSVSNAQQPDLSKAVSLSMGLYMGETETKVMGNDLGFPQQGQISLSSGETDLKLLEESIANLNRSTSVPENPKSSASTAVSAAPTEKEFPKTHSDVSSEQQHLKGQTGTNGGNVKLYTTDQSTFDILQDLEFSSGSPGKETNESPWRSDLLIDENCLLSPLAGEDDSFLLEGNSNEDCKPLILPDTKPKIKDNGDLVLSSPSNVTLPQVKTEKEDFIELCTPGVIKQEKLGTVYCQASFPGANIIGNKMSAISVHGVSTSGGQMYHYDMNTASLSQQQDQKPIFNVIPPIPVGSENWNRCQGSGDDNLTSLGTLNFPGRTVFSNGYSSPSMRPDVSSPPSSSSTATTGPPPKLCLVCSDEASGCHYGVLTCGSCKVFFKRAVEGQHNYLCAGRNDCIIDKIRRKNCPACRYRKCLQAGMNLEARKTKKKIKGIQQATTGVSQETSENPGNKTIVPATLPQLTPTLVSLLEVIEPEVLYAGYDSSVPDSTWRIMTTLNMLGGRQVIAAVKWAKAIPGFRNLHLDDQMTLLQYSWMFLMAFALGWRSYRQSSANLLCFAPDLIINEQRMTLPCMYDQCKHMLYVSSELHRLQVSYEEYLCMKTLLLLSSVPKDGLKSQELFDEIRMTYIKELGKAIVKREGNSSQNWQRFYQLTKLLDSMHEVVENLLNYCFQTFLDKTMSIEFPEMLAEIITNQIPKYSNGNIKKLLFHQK

Progesterone receptor = target: T3, Progesterone receptor (Rattus norvegicus, UniProt Q63449); test: Inhibition of rat PR
T3 sequence (Q63449 whole entry): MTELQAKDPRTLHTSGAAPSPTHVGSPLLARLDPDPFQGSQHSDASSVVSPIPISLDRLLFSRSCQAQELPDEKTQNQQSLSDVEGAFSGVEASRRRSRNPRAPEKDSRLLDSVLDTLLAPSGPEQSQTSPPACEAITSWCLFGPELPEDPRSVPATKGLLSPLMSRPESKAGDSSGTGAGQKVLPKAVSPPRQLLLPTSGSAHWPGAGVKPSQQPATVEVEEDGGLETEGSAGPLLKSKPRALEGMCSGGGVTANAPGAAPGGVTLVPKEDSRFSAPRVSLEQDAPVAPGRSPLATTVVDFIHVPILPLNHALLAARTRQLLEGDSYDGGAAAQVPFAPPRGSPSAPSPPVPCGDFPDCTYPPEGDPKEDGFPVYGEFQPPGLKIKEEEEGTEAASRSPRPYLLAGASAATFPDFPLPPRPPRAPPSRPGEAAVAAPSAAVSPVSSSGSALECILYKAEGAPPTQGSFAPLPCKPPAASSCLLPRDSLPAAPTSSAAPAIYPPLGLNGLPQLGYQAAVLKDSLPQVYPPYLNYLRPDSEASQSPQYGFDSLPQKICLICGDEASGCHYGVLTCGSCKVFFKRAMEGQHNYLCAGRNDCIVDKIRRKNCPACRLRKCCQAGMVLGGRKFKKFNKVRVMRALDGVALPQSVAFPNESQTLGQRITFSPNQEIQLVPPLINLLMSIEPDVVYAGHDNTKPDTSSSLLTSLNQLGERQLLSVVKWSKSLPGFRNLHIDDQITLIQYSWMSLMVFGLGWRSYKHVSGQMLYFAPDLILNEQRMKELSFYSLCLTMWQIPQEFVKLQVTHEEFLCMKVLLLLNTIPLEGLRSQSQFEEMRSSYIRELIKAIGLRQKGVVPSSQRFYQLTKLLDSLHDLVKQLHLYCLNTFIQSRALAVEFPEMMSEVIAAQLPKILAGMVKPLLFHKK

[9] = Half life in rat ventral prostate at 3 mg/kg, po; assay type: ADME, organism-based, Prostate gland; set-up: dose 3 mg/kg, route oral
[10] = Cmax in rat hypothalamus at 3 mg/kg, po; assay type: ADME, organism-based; set-up: dose 3 mg/kg, route oral
[11] = Oral clearance in rat ventral prostate at 3 mg/kg, po; assay type: ADME, organism-based, Prostate gland; set-up: dose 3 mg/kg, route oral
[12] = AUC (0-72)hrs in rat hypothalamus at 3 mg/kg, po; assay type: ADME, organism-based; set-up: time < 72 hr, dose 3 mg/kg, route oral
[13] = Oral clearance in rat hypothalamus at 3 mg/kg, po; assay type: ADME, organism-based; set-up: dose 3 mg/kg, route oral
[14] = Oral clearance in rat at 3 mg/kg, po; assay type: ADME, organism-based; set-up: dose 3 mg/kg, route oral; conditions: in vivo
[15] = Half life in rat plasma at 3 mg/kg, po; assay type: ADME, organism-based; set-up: dose 3 mg/kg, route oral

SMILES	inhibition in vivo at 10 mg/kg/day (Rattus norvegicus [1]) [%]	IC50 (Androgen receptor) [nM]	further results
CC1CN(c2ccc(C#N)c(C(F)(F)F)c2)C(C)CN1C(=O)Nc1ccc(C(F)(F)F)nc1 (racemic)	64		
C[C@@H]1CN(c2ccc(C#N)c(C(F)(F)F)c2)[C@@H](C)CN1C(=O)Nc1ccncc1 (racemic)	39		
C[C@@H]1CN(C(=O)Nc2ccc(C(F)(F)F)nc2)[C@@H](C)CN1c1ccc(C#N)c(C(F)(F)F)c1			inhibition (Rattus norvegicus [2]): inactive
C[C@@H]1CN(c2ccc(C#N)c(C(F)(F)F)c2)[C@@H](C)CN1C(=O)Nc1ccc(Cl)nc1 (racemic)	52	730	
Cc1ncccc1NC(=O)N1C[C@H](C)N(c2ccc(C#N)c(C(F)(F)F)c2)C[C@H]1C (racemic)		680	
C[C@@H]1CN(c2ccc(C#N)c(C(F)(F)F)c2)[C@@H](C)CN1C(=O)Nc1cncnc1 (racemic)		1000	
CSc1ccc(NC(=O)N2C[C@H](C)N(c3ccc(C#N)c(C(F)(F)F)c3)C[C@H]2C)cn1 (racemic)	36	220	
COC(=O)c1ccc(NC(=O)N2C[C@H](C)N(c3ccc(C#N)c(C(F)(F)F)c3)C[C@H]2C)cn1 (racemic)		470	inhibition (Rattus norvegicus [1]): inactive
CC(O)(CS(=O)(=O)c1ccc(F)cc1)C(=O)Nc1ccc(C#N)c(C(F)(F)F)c1 (stereo not given) [BICALUTAMIDE]			AUC at 72 h [3]: 52500 ng·h/mL; half-life [4]: 27.8 h; Cmax [5]: 1990 ng/mL; Activity (Rattus norvegicus [6]): 55%; Inhibition (Rattus norvegicus [1]): 45%; Cmax [7]: 1410 ng/mL; AUC at 72 h [8]: 46900 ng·h/mL; Ki (Glucocorticoid receptor): > 100000 nM; Ki (Progesterone receptor): 7200 nM; half-life [9]: 23.4 h; Cmax [10]: 321 ng/mL; CL/F [11]: 0.84 mL/min/kg; AUC at 72 h [12]: 10600 ng·h/mL; CL/F [13]: 3.75 mL/min/kg; CL/F [14]: 0.945 mL/min/kg; half-life [15]: 22.3 h
C[C@@H]1CN(c2ccc(C#N)c(C(F)(F)F)c2)[C@@H](C)CN1C(=O)Nc1cccnc1 (racemic)	42	120	
Cc1ccncc1NC(=O)N1C[C@H](C)N(c2ccc(C#N)c(C(F)(F)F)c2)C[C@H]1C (racemic)	11	330	
Cc1ccc(NC(=O)N2C[C@H](C)N(c3ccc(C#N)c(C(F)(F)F)c3)C[C@H]2C)cn1 (racemic)	58	130	
C[C@@H]1CN(c2ccc(C#N)c(C(F)(F)F)c2)[C@@H](C)CN1C(=O)Nc1ccc(N)nc1 (racemic)	39	370	
C[C@@H]1CN(c2ccc(C#N)c(C(F)(F)F)c2)[C@@H](C)CN1C(=O)Nc1ccc[n+]([O-])c1 (racemic)		> 10000	
C[C@@H]1CN(c2ccc(C#N)c(C(F)(F)F)c2)[C@@H](C)CN1C(=O)Nc1ccc(C#N)nc1 (racemic)	53	200	
C[C@@H]1CN(c2ccc(C#N)c(C(F)(F)F)c2)[C@@H](C)CN1C(=O)Nc1ccc(O)nc1 (racemic)		> 10000	
CC(=O)c1ccc(NC(=O)N2C[C@H](C)N(c3ccc(C#N)c(C(F)(F)F)c3)C[C@H]2C)cn1 (racemic)	43	500	
COc1ccncc1NC(=O)N1C[C@H](C)N(c2ccc(C#N)c(C(F)(F)F)c2)C[C@H]1C (racemic)			inhibition (Rattus norvegicus [1]): inactive
COc1ccc(NC(=O)N2C[C@H](C)N(c3ccc(C#N)c(C(F)(F)F)c3)C[C@H]2C)cn1 (racemic)	52	170	
C[C@@H]1CN(c2ccc(C#N)c(C(F)(F)F)c2)[C@@H](C)CN1C(=O)Nc1ccncn1 (racemic)		4600	
COc1cncc(NC(=O)N2C[C@H](C)N(c3ccc(C#N)c(C(F)(F)F)c3)C[C@H]2C)c1 (racemic)	18	440	
C[C@@H]1CN(c2ccc(C#N)c(C(F)(F)F)c2)[C@@H](C)CN1C(=O)Nc1ccc(F)cc1F		200	inhibition (Rattus norvegicus [2]): inactive
Cc1cncc(NC(=O)N2C[C@H](C)N(c3ccc(C#N)c(C(F)(F)F)c3)C[C@H]2C)c1 (racemic)	11	250	
COc1ncccc1NC(=O)N1C[C@H](C)N(c2ccc(C#N)c(C(F)(F)F)c2)C[C@H]1C (racemic)		190	inhibition (Rattus norvegicus [2]): inactive
C[C@@H]1CN(c2ccc(C#N)c(C(F)(F)F)c2)[C@@H](C)CN1C(=O)Nc1ncccn1 (racemic)		> 10000	
C[C@@H]1CN(c2ccc(C#N)c(C(F)(F)F)c2)[C@@H](C)CN1C(=O)Nc1ccccn1 (racemic)		7800	
